pIC50: −log10 of the molar value.
How the values were obtained:
Format in all cases: biochemical
SIK1 = SIK1 (Homo sapiens, UniProt P57059); experiment: Enzymatic activity assay SIK1, RapidFire mass spectrometry (phosphorylation of CHK-peptide); settings: RapidFire MS, inhibition of SIK1; read-out: SIK1 RF IC50
Outline: (§1)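 Compounds (12-point, 3-fold, generally 30 μM to 170 pM) were pre-incubated 30 min at ambient temperature with SIK1 (5 nM), SIK2 (0.5 nM) or SIK3 (1.5 nM) in HEPES pH 7.0/magnesium acetate buffer. CHK-peptide (10 μM solution) and ATP (100 μM solution) were then added for 45 min before formic acid quench.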

SIK2 = SIK2 (Homo sapiens, UniProt Q9H0K1); experiment: Enzymatic activity assay SIK2, RapidFire mass spectrometry (phosphorylation of CHK-peptide); settings: RapidFire MS, inhibition of SIK2; read-out: SIK2 RF IC50
Chain of SIK2 (Q9H0K1 whole entry): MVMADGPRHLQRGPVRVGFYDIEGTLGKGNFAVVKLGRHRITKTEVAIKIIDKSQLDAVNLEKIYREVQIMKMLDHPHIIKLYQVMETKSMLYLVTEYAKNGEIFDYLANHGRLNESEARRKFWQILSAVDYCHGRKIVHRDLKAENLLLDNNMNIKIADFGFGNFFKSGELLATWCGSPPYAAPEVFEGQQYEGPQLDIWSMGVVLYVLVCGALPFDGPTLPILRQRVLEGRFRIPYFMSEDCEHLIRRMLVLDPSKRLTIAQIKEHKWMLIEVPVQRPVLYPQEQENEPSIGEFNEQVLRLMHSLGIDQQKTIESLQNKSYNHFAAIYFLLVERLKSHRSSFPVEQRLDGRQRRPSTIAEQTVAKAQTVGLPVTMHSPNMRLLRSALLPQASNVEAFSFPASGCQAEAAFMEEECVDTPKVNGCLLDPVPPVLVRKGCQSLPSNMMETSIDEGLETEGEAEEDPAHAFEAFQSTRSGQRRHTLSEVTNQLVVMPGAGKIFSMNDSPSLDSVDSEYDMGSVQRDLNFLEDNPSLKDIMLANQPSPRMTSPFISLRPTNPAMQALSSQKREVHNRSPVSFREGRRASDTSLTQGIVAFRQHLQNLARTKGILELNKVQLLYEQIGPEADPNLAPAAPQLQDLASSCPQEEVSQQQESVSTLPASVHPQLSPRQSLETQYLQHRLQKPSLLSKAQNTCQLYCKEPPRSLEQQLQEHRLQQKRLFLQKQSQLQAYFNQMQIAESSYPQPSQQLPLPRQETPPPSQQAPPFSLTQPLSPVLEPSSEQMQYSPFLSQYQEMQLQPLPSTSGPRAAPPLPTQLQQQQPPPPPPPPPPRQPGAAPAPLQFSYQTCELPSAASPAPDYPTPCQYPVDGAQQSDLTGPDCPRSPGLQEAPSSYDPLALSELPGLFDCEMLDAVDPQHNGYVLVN
Outline: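 SIK2 (0.5 nM) in pH 7.0 HEPES buffer with 10 mM Mg acetate phosphorylates CHK-peptide (10 μM solution) with 100 μM ATP solution, 45 min ambient, then formic acid quench.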

SIK3 = SIK3 (Homo sapiens, UniProt Q9Y2K2); experiment: Enzymatic activity assay SIK3, RapidFire mass spectrometry (phosphorylation of CHK-peptide); settings: RapidFire MS, inhibition of SIK3; read-out: SIK3 RF IC50
Chain of SIK3 (Q9Y2K2 whole entry): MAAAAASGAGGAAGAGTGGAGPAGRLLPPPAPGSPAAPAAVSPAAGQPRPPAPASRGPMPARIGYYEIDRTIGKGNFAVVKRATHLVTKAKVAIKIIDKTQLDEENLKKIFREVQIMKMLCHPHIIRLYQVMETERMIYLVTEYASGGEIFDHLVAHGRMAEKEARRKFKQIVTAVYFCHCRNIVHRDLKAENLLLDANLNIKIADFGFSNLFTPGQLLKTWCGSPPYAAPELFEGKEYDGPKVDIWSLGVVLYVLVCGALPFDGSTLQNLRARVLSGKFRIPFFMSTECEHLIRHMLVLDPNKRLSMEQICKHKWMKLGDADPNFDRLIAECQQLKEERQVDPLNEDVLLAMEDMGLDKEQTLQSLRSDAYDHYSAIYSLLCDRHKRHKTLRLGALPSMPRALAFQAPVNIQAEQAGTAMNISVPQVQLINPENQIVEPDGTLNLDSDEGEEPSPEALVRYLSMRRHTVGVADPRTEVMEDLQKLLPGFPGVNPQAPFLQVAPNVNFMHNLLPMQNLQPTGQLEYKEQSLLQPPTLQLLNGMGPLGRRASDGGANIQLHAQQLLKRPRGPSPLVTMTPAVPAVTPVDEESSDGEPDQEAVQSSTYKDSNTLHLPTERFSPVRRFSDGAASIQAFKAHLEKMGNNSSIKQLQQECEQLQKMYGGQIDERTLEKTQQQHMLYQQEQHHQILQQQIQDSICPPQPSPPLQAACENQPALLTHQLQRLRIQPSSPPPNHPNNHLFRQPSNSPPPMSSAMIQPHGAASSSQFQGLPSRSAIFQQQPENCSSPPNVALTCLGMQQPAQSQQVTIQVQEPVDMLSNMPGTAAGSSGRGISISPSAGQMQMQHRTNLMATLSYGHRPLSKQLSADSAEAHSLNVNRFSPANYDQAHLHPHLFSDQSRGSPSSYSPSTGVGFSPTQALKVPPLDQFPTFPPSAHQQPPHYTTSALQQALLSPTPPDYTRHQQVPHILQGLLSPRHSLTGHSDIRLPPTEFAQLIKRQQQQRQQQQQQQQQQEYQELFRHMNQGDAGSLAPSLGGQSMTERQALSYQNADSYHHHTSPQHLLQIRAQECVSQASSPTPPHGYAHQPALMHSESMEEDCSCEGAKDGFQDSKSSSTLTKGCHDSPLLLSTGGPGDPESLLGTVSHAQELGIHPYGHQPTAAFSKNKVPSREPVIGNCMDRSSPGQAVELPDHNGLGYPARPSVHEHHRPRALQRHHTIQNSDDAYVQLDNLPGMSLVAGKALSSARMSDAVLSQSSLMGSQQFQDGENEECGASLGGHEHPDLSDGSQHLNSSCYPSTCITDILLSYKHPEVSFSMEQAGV
Outline: as §1

Chain of SIK1 (P57059 whole entry): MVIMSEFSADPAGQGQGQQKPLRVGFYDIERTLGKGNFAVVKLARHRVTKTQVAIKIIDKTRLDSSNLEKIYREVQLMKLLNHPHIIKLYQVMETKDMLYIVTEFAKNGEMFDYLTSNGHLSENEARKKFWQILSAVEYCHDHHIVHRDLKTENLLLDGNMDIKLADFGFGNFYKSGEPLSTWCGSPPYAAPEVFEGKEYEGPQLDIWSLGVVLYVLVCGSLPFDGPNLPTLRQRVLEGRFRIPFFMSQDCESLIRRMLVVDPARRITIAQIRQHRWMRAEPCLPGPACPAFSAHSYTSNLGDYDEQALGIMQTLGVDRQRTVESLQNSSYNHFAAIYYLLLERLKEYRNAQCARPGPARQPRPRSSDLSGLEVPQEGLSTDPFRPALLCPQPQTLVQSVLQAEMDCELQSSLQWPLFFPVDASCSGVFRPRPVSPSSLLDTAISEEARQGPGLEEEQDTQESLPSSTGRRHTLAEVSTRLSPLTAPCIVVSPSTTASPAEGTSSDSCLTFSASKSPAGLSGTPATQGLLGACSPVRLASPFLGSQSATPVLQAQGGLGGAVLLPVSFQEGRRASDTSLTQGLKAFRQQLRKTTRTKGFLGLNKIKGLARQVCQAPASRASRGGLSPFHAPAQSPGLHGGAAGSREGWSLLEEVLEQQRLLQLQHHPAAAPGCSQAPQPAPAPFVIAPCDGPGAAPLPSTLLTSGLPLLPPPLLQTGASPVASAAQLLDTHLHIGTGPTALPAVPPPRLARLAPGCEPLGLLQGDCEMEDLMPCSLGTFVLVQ

| pIC50 (SIK1) | pIC50 (SIK2) | pIC50 (SIK3) | Compound |
| --- | --- | --- | --- |
| 6.96 | 9.10 | 9.40 | Cc1ccc(Nc2ccc3c(c2)ncn3-c2ccc([C@H](C)O)c(-n3nc(C(F)F)cc3C(F)F)n2)nn1 [Example 287, (1S)-1-[2-[3,5-bis(difluoromethyl)pyrazol-1-yl]-6-[5-[(6-methylpyridazin-3-yl)amino]benzimidazol-1-yl]-3-pyridyl]ethanol] |
| 7.15 | 8.70 | 8.25 | COCCOc1cc2c(cc1Nc1ccc(C)nn1)ncn2-c1ccc(C(C)O)c(-n2nc(C#N)cc2C)n1 (stereo not drawn) [Example 187, 1-[3-(1-Hydroxyethyl)-6-[6-(2-methoxyethoxy)-5-[(6-methylpyridazin-3-yl)amino]benzimidazol-1-yl]-2-pyridyl]-5-methyl-pyrazole-3-carbonitrile] |
| 7.92 | 8.06 | 7.57 | Cc1ccc(Nc2cc3c(cc2F)ncn3-c2ccc(C(C)O)c(-n3nc(C(F)F)cc3C)n2)c(F)c1F (stereo not drawn) [Example 362, 1-[6-[6-(2,3-difluoro-4-methyl-anilino)-5-fluoro-benzimidazol-1-yl]-2-[3-(difluoromethyl)-5-methyl-pyrazol-1-yl]-3-pyridyl]ethanol] |
| 7.85 | 8.02 | 7.38 | Cc1nnc(Nc2cc3c(cc2F)ncn3-c2ccc(C(C)O)c(-n3nc(C#N)cc3C)n2)o1 (stereo not drawn) [Example 376, 1-[6-[5-fluoro-6-[(5-methyl-1,3,4-oxadiazol-2-yl)amino]benzimidazol-1-yl]-3-(1-hydroxyethyl)-2-pyridyl]-5-methyl-pyrazole-3-carbonitrile] |
| 8.05 | 8.64 | 9.10 | Cc1ccc(Nc2ccc3c(c2)ncn3-c2ccc(C(C)O)c(-n3nc(C#N)cc3C)n2)cn1 (stereo not drawn) [Example 81, 1-[3-(1-Hydroxyethyl)-6-[5-[(6-methyl-3-pyridyl)amino]benzimidazol-1-yl]-2-pyridyl]-5-methyl-pyrazole-3-carbonitrile] |
| 4.84 | 7.49 | 7.43 | Cc1cc(C(=O)N(C)C)c(Nc2ccc3c(c2)ncn3-c2ccc(CO)c(-n3nc(C(F)F)cc3C(F)F)n2)nn1 [Example 348, 3-[[1-[6-[3,5-bis(difluoromethyl)pyrazol-1-yl]-5-(hydroxymethyl)-2-pyridyl]benzimidazol-5-yl]amino]-N,N,6-trimethyl-pyridazine-4-carboxamide] |
| 8.30 | 7.66 | 7.20 | Cc1cc(C#N)nn1-c1nc(-n2cnc3ccc(N4CC[C@H]5CNC(=O)[C@H]54)cc32)ccc1C(C)O (stereo partly drawn) [Example 343, 1-[6-[6-[(3aS,6aS)-6-oxo-2,3,3a,4,5,6a-hexahydropyrrolo[2,3-c]pyrrol-1-yl]benzimidazol-1-yl]-3-(1-hydroxyethyl)-2-pyridyl]-5-methyl-pyrazole-3-carbonitrile] |
| 6.55 | 8.41 | 9.15 | Cc1ccc(Nc2ccc3c(c2)ncn3-c2ccc(C(C)O)c(-n3ccc(C#N)n3)n2)nn1 (stereo not drawn) [Example 115, 1-[3-(1-Hydroxyethyl)-6-[5-[(6-methylpyridazin-3-yl)amino]benzimidazol-1-yl]-2-pyridyl]pyrazole-3-carbonitrile] |
| 6.01 | 7.60 | 8.32 | CCn1nc(C(F)(F)F)cc1-c1nc(-n2cnc3cc(Nc4ccc(C)nn4)ccc32)ccc1C(C)O (stereo not drawn) [Example 250, 1-[2-[2-Ethyl-5-(trifluoromethyl)pyrazol-3-yl]-6-[5-[(6-methylpyridazin-3-yl)amino]benzimidazol-1-yl]-3-pyridyl]ethanol] |
| 6.19 | 6.61 | 6.70 | COCC(O)c1ccc(-n2cnc3ccc(Nc4ccc(C)nn4)cc32)nc1-n1nc(C#N)cc1C (stereo not drawn) [Example 235, 1-[3-(1-Hydroxy-2-methoxy-ethyl)-6-[6-[(6-methylpyridazin-3-yl)amino]benzimidazol-1-yl]-2-pyridyl]-5-methyl-pyrazole-3-carbonitrile] |
| 5.05 | 6.79 | 7.46 | Cc1ccc(Nc2ccc3c(c2)ncn3-c2ccc(C(C)O)c(-n3cc(C#N)nn3)n2)nn1 (stereo not drawn) [Example 253, 1-[3-(1-Hydroxyethyl)-6-[5-[(6-methylpyridazin-3-yl)amino]benzimidazol-1-yl]-2-pyridyl]triazole-4-carbonitrile] |
| 6.45 | 6.72 | 6.14 | CCC(O)c1ccc(-n2cnc3cc(OC)c(OC)cc32)nc1-c1cccc(Cl)c1 (stereo not drawn) [Example 24, 1-(2-(3-Chlorophenyl)-6-(5,6-dimethoxy-1H-benzo[d]imidazol-1-yl)pyridin-3-yl)propan-1-ol] |
| 7.37 | 9.52 | 9.70 | Cc1ccc(Nc2ccc3c(c2)ncn3-c2ccc(C(C)O)c(-c3cnn(CC(F)(F)F)c3C)n2)nn1 (stereo not drawn) [Example 240, 1-[6-[5-[(6-Methylpyridazin-3-yl)amino]benzimidazol-1-yl]-2-[5-methyl-1-(2,2,2-trifluoroethyl)pyrazol-4-yl]-3-pyridyl]ethanol; formic acid] |
| 6.49 | 7.89 | 7.64 | Cc1ccc(Nc2cc3ncn(-c4ccc(C(C)O)c(-n5nc(OC(F)F)cc5C)n4)c3cc2CC2COC2)nn1 (stereo not drawn) [Example 407, 1-[2-[3-(difluoromethoxy)-5-methyl-pyrazol-1-yl]-6-[5-[(6-methylpyridazin-3-yl)amino]-6-(oxetan-3-ylmethyl)benzimidazol-1-yl]-3-pyridyl]ethanol] |
| 8.52 | 9.52 | 9.52 | Cc1ccc(Nc2ccc3c(c2)ncn3-c2ccc(C(C)O)c(-n3nc(C#N)c4c3CCNC4)n2)nn1 (stereo not drawn) [Example 205, 1-[3-(1-Hydroxyethyl)-6-[5-[(6-methylpyridazin-3-yl)amino]benzimidazol-1-yl]-2-pyridyl]-4,5,6,7-tetrahydropyrazolo[4,3-c]pyridine-3-carbonitrile] |
| 5.42 | 7.17 | 7.22 | Cc1nn(CC(F)(F)F)cc1-c1nc(-n2cnc3cc(Oc4ccc(CN5CCOCC5)nn4)ccc32)ccc1C(C)O (stereo not drawn) [Example 350, 1-[2-[3-methyl-1-(2,2,2-trifluoroethyl)pyrazol-4-yl]-6-[5-[6-(morpholinomethyl)pyridazin-3-yl]oxybenzimidazol-1-yl]-3-pyridyl]ethanol] |
| 7.40 | 8.14 | 8.39 | Cc1cc(C#N)nn1-c1nc(-n2cnc3cc(NC(=O)C4CC4)ccc32)ccc1C(C)O (stereo not drawn) [Example 327, N-[1-[6-(3-cyano-5-methyl-pyrazol-1-yl)-5-(1-hydroxyethyl)-2-pyridyl]benzimidazol-5-yl]cyclopropanecarboxamide] |
| 5.12 | 5.82 | 6.76 | Cc1cc(C#N)nn1-c1nc(-n2cnc3cc(CN4CCCC4=O)ccc32)ccc1C(C)O (stereo not drawn) [Example 213, 1-[3-(1-Hydroxyethyl)-6-[5-[(2-oxopyrrolidin-1-yl)methyl]benzimidazol-1-yl]-2-pyridyl]-5-methyl-pyrazole-3-carbonitrile] |
| 7.77 | 9.52 | 9.52 | Cc1ccc(Nc2ccc3c(c2)ncn3-c2ccc(C(C)O)c(-c3nnn(CC(F)(F)F)c3C)n2)nn1 (stereo not drawn) [Example 311, 1-[6-[5-[(6-methylpyridazin-3-yl)amino]benzimidazol-1-yl]-2-[5-methyl-1-(2,2,2-trifluoroethyl)triazol-4-yl]-3-pyridyl]ethanol] |

— patent US20240383875A1, “Benzimidazole Pyridine Derivatives” (Hoffmann-La Roche Inc., priority 2022, published 2024)
